Results from PubChem BioAssay AID248 (DTP/NCI, 2004).
Several values for one entry are separate records, joined by “and”; a condition that tells them apart may be missing. Equal entries are not always repeated. Toxic doses and inconclusive results are not listed. Cut-off read from the data, not from the text of the source: active = T/C of 150% or more; inactive = T/C below 125%.

Tested on: L1210 leukemia ip in BDF1 mice, survival T/C
Test: NCI In Vivo Anticancer Drug Screen. Data for tumor model L1210 Leukemia (intraperitoneal) in B6D2F1 (BDF1) mice
Conditions: endpoint: mean survival time, higher = longer survival
How it was run: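 Tumor was transplanted into mice, which were then dosed with test compound or vehicle alone. Survival was recorded for each group, and the treated figure was expressed relative to the control figure.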

[1] = dose: 50.0 mg/kg/injection, schedule: Q01DX001 (ip), vehicle: carboxymethylcellulose (CMC)
[2] = dose: 100.0 mg/kg/injection, schedule: Q01DX001 (ip), vehicle: carboxymethylcellulose (CMC)
[3] = dose: 200.0 mg/kg/injection, schedule: Q01DX001 (ip), vehicle: carboxymethylcellulose (CMC)
[4] = dose: 400.0 mg/kg/injection, schedule: Q01DX001 (ip), vehicle: carboxymethylcellulose (CMC)
[5] = dose: 25.0 mg/kg/injection, schedule: Q04DX003 (ip), vehicle: Klucel (hydroxypropylcellulose) (HPC)
[6] = dose: 100.0 mg/kg/injection, schedule: Q04DX003 (ip), vehicle: Klucel (hydroxypropylcellulose) (HPC)
[7] = dose: 100.0 mg/kg/injection, schedule: Q01DX009 (ip), vehicle: Klucel (hydroxypropylcellulose) (HPC)
[8] = dose: 200.0 mg/kg/injection, schedule: Q01DX009 (ip), vehicle: Klucel (hydroxypropylcellulose) (HPC)
[9] = dose: 400.0 mg/kg/injection, schedule: Q01DX009 (ip), vehicle: Klucel (hydroxypropylcellulose) (HPC)
[10] = dose: 200.0 mg/kg/injection, schedule: Q04DX003 (ip), vehicle: Klucel (hydroxypropylcellulose) (HPC)
[11] = dose: 400.0 mg/kg/injection, schedule: Q04DX003 (ip), vehicle: Klucel (hydroxypropylcellulose) (HPC)
[12] = dose: 100.0 mg/kg/injection, schedule: Q01DX001 (ip), vehicle: saline
[13] = dose: 200.0 mg/kg/injection, schedule: Q01DX001 (ip), vehicle: saline
[14] = dose: 400.0 mg/kg/injection, schedule: Q01DX001 (ip), vehicle: saline
[15] = dose: 25.0 mg/kg/injection, schedule: Q01DX009 (ip), vehicle: Klucel (hydroxypropylcellulose) (HPC)
[16] = dose: 50.0 mg/kg/injection, schedule: Q01DX009 (ip), vehicle: Klucel (hydroxypropylcellulose) (HPC)
[17] = dose: 50.0 mg/kg/injection, schedule: Q01DX009 (ip), vehicle: saline with Tween-80
[18] = dose: 100.0 mg/kg/injection, schedule: Q01DX009 (ip), vehicle: saline with Tween-80

Measured: T/C

O=C(Nc1ccccc1)Nc1cccc(C(F)(F)F)c1
inactive: [1] 104 % of control | [2] 102 % of control | [3] 107 % of control | [4] 109 % of control

C=CC(=O)Nc1ccc(Cl)cc1
inactive: [5] 98 % of control | dose: 50.0 mg/kg/injection, schedule: Q04DX003 (ip), vehicle: Klucel (hydroxypropylcellulose) (HPC) 96 % of control | [6] 107 % of control and 90 % of control

COc1cc([N+](=O)[O-])ccc1NC(=O)c1ccccc1
inactive: [2] 99 % of control | [3] 101 % of control | [4] 97 % of control

CCCC1C(CC)C=NN1Cc1ccccc1 (centres undefined)
inactive: [1] 88 % of control | [2] 100 % of control | [3] 94 % of control | [4] 92 % of control

O=C(Nc1ccc(Cl)c(Cl)c1)c1ccc(Cl)c(Cl)c1
inactive: dose: 50.0 mg/kg/injection, schedule: Q04DX002 (ip), vehicle: saline with Tween-80 94 % of control | dose: 100.0 mg/kg/injection, schedule: Q04DX002 (ip), vehicle: saline with Tween-80 91 % of control | dose: 200.0 mg/kg/injection, schedule: Q04DX002 (ip), vehicle: saline with Tween-80 91 % of control

CCOc1cc(/C=N/NC(=O)c2ccccc2NC(=O)c2ccccc2)ccc1OC
inactive: [7] 92 % of control | [8] 92 % of control | [9] 101 % of control

O=c1cc[nH]c2c(Cl)cccc12
inactive: [1] 109 % of control | [2] 109 % of control | [3] 114 % of control | [4] 110 % of control

CCCCCCCCCCCCCCCCN(C(C)C)S(=O)(=O)c1ccc(Cl)c([N+](=O)[O-])c1
inactive: dose: 100.0 mg/kg/injection, schedule: Q01DX009 (ip), vehicle: saline sonified 106 % of control | [6] 91 % of control | dose: 200.0 mg/kg/injection, schedule: Q01DX009 (ip), vehicle: saline sonified 96 % of control | [10] 94 % of control | dose: 400.0 mg/kg/injection, schedule: Q01DX009 (ip), vehicle: saline sonified 89 % of control | [11] 93 % of control

CCOC(=O)C(Oc1ccc([N+](=O)[O-])cc1)C(=O)OCC
inactive: [7] 98 % of control | [8] 98 % of control | [9] 96 % of control

Nc1nc(N)c(-c2ccc(Cl)c(Cl)c2)c(/C=C/C=C/c2cccnc2)n1
inactive: dose: 16.7 mg/kg/injection, schedule: Q01DX009 (ip), vehicle: saline with Tween-80 112 % of control | dose: 37.5 mg/kg/injection, schedule: Q01DX009 (ip), vehicle: saline with Tween-80 86 % of control

COc1ccc(OC)c2c(C)cc(Cl)nc12
inactive: [12] 104 % of control | [13] 98 % of control | [14] 110 % of control

Clc1cc(C(Cl)(Cl)Cl)ccc1C(Cl)(Cl)Cl
inactive: [15] 89 % of control | [16] 92 % of control | [7] 90 % of control

Nc1ncnc2c1cnn2CCCl
inactive: [12] 101 % of control | dose: 100.0 mg/kg/injection, schedule: Q04DX003 (ip), vehicle: saline 106 % of control | dose: 132.0 mg/kg/injection, schedule: Q04DX003 (ip), vehicle: saline 104 % of control and 123 % of control | [13] 101 % of control | dose: 200.0 mg/kg/injection, schedule: Q04DX003 (ip), vehicle: saline 102 % of control and 124 % of control | dose: 300.0 mg/kg/injection, schedule: Q04DX003 (ip), vehicle: saline 104 % of control | [14] 102 % of control | dose: 400.0 mg/kg/injection, schedule: Q04DX003 (ip), vehicle: saline 101 % of control

CC12C3C(=O)NC45CCCC41C5(c1ccccc1)C32c1ccccc1 (centres undefined)
inactive: dose: 100.0 mg/kg/injection, schedule: Q01DX001 (ip), vehicle: Klucel (hydroxypropylcellulose) (HPC) 96 % of control | dose: 200.0 mg/kg/injection, schedule: Q01DX001 (ip), vehicle: Klucel (hydroxypropylcellulose) (HPC) 96 % of control | dose: 400.0 mg/kg/injection, schedule: Q01DX001 (ip), vehicle: Klucel (hydroxypropylcellulose) (HPC) 94 % of control

CC1(C)CC(C(=O)O)C(=O)O1 (centres undefined)
inactive: dose: 75.0 mg/kg/injection, schedule: Q01DX001 (ip), vehicle: saline 97 % of control | dose: 150.0 mg/kg/injection, schedule: Q01DX001 (ip), vehicle: saline 103 % of control | dose: 300.0 mg/kg/injection, schedule: Q01DX001 (ip), vehicle: saline 98 % of control

CN(N=O)C(=O)N(C)C(=O)N(C)N=O
inactive: dose: 6.25 mg/kg/injection, schedule: Q01DX Z (ip), vehicle: carboxymethylcellulose (CMC) 104 % of control | dose: 12.5 mg/kg/injection, schedule: Q01DX Z (ip), vehicle: carboxymethylcellulose (CMC) 112 % of control | dose: 25.0 mg/kg/injection, schedule: Q01DX Z (ip), vehicle: carboxymethylcellulose (CMC) 108 % of control | dose: 50.0 mg/kg/injection, schedule: Q01DX Z (ip), vehicle: carboxymethylcellulose (CMC) 92 % of control

C/C(=N/NC(=O)c1ccc(N)cc1)c1ccc(C)cc1
inactive: dose: 100.0 mg/kg/injection, schedule: Q04DX002 (ip), vehicle: Klucel (hydroxypropylcellulose) (HPC) 110 % of control | dose: 200.0 mg/kg/injection, schedule: Q04DX002 (ip), vehicle: Klucel (hydroxypropylcellulose) (HPC) 89 % of control

CS(=O)(=O)c1ccc(N)cc1
inactive: dose: 6.25 mg/kg/injection, schedule: Q04DX003 (ip), vehicle: Klucel (hydroxypropylcellulose) (HPC) 99 % of control | dose: 12.5 mg/kg/injection, schedule: Q04DX003 (ip), vehicle: Klucel (hydroxypropylcellulose) (HPC) 95 % of control | [5] 95 % of control | [17] 100 % of control | dose: 50.0 mg/kg/injection, schedule: Q01DX009 (ip), vehicle: saline 93 % of control | [18] 92 % of control | dose: 100.0 mg/kg/injection, schedule: Q01DX009 (ip), vehicle: saline 87 % of control | dose: 200.0 mg/kg/injection, schedule: Q01DX009 (ip), vehicle: saline with Tween-80 92 % of control | dose: 200.0 mg/kg/injection, schedule: Q01DX009 (ip), vehicle: saline 93 % of control

Clc1ccc2c(Cl)ccnc2c1
inactive: dose: 100.0 mg/kg/injection, schedule: Q04DX002 (ip), vehicle: gum acacia 91 % of control | dose: 200.0 mg/kg/injection, schedule: Q04DX002 (ip), vehicle: gum acacia 95 % of control

CC(C)(C)CC(C)(C)N
inactive: dose: 12.5 mg/kg/injection, schedule: Q01DX001 (ip), vehicle: Klucel (hydroxypropylcellulose) (HPC) 100 % of control | dose: 25.0 mg/kg/injection, schedule: Q01DX001 (ip), vehicle: Klucel (hydroxypropylcellulose) (HPC) 92 % of control | dose: 50.0 mg/kg/injection, schedule: Q01DX001 (ip), vehicle: Klucel (hydroxypropylcellulose) (HPC) 92 % of control

Oc1ccccc1C=NCc1ccccc1
inactive: [6] 100 % of control | [10] 92 % of control | [11] 96 % of control

CN1CCN(C(=O)Cc2c[nH]c3ccccc23)CC1
inactive: dose: 6.25 mg/kg/injection, schedule: Q01DX009 (ip), vehicle: saline with Tween-80 104 % of control | dose: 12.5 mg/kg/injection, schedule: Q01DX009 (ip), vehicle: saline with Tween-80 100 % of control | dose: 25.0 mg/kg/injection, schedule: Q01DX009 (ip), vehicle: saline with Tween-80 120 % of control and 91 % of control | dose: 25.0 mg/kg/injection, schedule: Q04DX003 (ip), vehicle: saline with Tween-80 100 % of control | [17] 95 % of control and 117 % of control | dose: 50.0 mg/kg/injection, schedule: Q04DX003 (ip), vehicle: saline with Tween-80 102 % of control | [18] 115 % of control and 88 % of control | dose: 100.0 mg/kg/injection, schedule: Q04DX003 (ip), vehicle: saline with Tween-80 103 % of control and 108 % of control

CCCCCN(CCCCC)CC(O)c1cc2c(c3ccccc13)CCCC2 (centres undefined)
inactive: [15] 87 % of control | [16] 93 % of control | [7] 90 % of control
